{"source": "patent US7081461B1", "about": "“Quinazoline compounds and pharmaceutical compositions containing them” (AstraZeneca AB, priority 1999, dated 2006)", "key": {"aurora2 kinase": {"target": "T1, aurora2 kinase (Homo sapiens, UniProt O14965)", "T1 construct": "6 His with spacer region and rTEV protease cleavage site (pFastBac HTc) (N); made in house; host or cells: Spodoptera frugiperda Sf21 insect cells (baculovirus, pFastBac HTc)", "T1 sequence (O14965 1-403)": "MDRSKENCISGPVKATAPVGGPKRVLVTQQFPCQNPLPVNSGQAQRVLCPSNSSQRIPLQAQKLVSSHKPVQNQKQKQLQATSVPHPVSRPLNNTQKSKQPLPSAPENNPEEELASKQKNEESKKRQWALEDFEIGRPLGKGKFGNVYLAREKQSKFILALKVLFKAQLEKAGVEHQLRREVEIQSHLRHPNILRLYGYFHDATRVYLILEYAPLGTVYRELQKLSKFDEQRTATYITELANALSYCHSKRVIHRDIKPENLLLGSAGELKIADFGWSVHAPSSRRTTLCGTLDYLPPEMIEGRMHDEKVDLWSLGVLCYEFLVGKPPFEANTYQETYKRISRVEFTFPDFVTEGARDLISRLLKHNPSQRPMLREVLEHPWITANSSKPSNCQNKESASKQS", "test": "In vitro aurora2 kinase inhibition test", "assay_type": "biochemical"}, "MCF7 cells": {"tested_on": "MCF7 cells", "test": "In vitro cell cycle analysis assay (FACS, propidium iodide)", "assay_type": "cell-based, human", "details": "MCF7, 24.8 μM, 24 hours", "method": "(c) In Vitro Cell Cycle Analysis Assay\nThis assay determines the ability of a test compound to arrest cells in specific phases of the cell cycle. Many different mammalian cell lines could be used in this assay and MCF7 cells are included here as an example. MCF-7 cells were seeded at 3×10^5 cells per T25 flask (Costar) in 5 ml DMEM (no phenol red 10% FCS, 1% L-glutamine 1% penicillin/streptomycin). Flasks were then incubated overnight in a humidified 37° C. incubator with 5% CO2. The following day 1 ml of DMEM (no phenol red 10% FCS, 1% L-glutamine 1% penicillin/streptomycin) carrying the appropriate concentration of test compound solubilised in DMSO was added to the flask. A no compound control treatments was also included (0.5% DMSO). The cells were then incubated for a defined time (usually 24 hours) with compound. After this time the media was aspirated from the cells and they were washed with 5 ml of prewarmed (37° C.) sterile PBSA, then detached from the flask by brief incubation with trypsin and followed by resuspension in 10 ml of 1% Bovine Serum Albumin (BSA, Sigma-Aldrich Co.) in sterile PBSA. The samples were then centrifuged at 2200 rpm for 10 min. The supernatant was aspirated and the cell pellet was resuspended in 200%1 of 0.1% (w/v) Tris sodium citrate, 0.0564% (w/v) NaCl, 0.03% (v/v) Nonidet NP40, [pH 7.6]. Propridium Iodide (Sigma Aldrich Co.) was added to 40 μg/ml and RNAase A (Sigma Aldrich Co.) to 100 μg/ml. The cells were then incubated at 37° C. for 30 minutes. The samples were centrifuged at 2200 rpm for 10 min, the supernatant removed and the remaining pellet (nuclei) resuspended in 200%1 of sterile PBSA. […] The samples were then transferred to LPS tubes and DNA content per cell analysed by Fluorescence activated cell sorting (FACS) using a FACScan flow cytometer (Becton Dickinson). Typically 25000 events were counted and recorded using […]. Cell cycle distribution of the population was calculated using Modfit software (Verity Software) and expressed as percentage of cells in G0/G1, S and G2/M phases of the cell cycle."}, "MCF-7 cells": {"tested_on": "MCF-7 cells", "test": "In vitro cell proliferation assay, Assay 1 (CyQUANT cell density)", "assay_type": "cell-based", "details": "Homo sapiens, MCF7, 72 h, MCF-7, 3 days with compound, read-out: concentration giving 50% inhibition of cell proliferation", "description": "(b) In Vitro Cell Proliferation Assay\nThese and other assays can be used to determine the ability of a test compound to inhibit the growth of adherent mammalian cell lines, for example the human tumour cell line MCF7.\nAssay 1: MCF-7 (ATCC HTB-22) or other adherent cells were typically seeded at 1×10^3 cells per well (excluding the peripheral wells) in DMEM (Sigma Aldrich) without phenol red, plus 10% foetal calf serum, 1% L-glutamine and 1% penicillin/streptomycin in 96 well tissue culture treated clear plates (Costar). The following day (day 1), the media was removed from a no treatment control plate and the plate stored at −80° C. […] The fluorescence of the wells was then measured using a fluorescence microplate reader (gain 70, 2 reads per well, 1 cycle with excitation 485 nm and emission 530 nm using a CytoFluor plate reader (PerSeptive Biosystems Inc.)). […]"}}}
{"smiles": "COc1ccnc(COc2ccc(Nc3ncnc4cc(OC)c(OC)cc34)cc2C)c1", "note": "[Compound 43]", "values": [{"measurement": "IC50", "setting": "aurora2 kinase", "value": 0.465, "unit": "µM"}, {"measurement": "% Cells in G1", "setting": "MCF7 cells", "value": 37.29, "unit": "%"}, {"measurement": "% Cells in G2/M", "setting": "MCF7 cells", "value": 28.78, "unit": "%"}, {"measurement": "% Cells in S", "setting": "MCF7 cells", "value": 33.93, "unit": "%"}, {"measurement": "IC50", "setting": "MCF-7 cells", "value": 12.4, "unit": "µM"}]}
